Test results: patent US20080312164A1 (priority 2006, published 2008)
Marks after values point to notes of the source that are not given here.

What was measured:
[1] = system: NmuMG mouse mammary normal epithelial cells; assay: Cell Titer-Glo cytotoxicity assay, NmuMG; type: cell-based; details: Mus musculus, Epithelial cell; NmuMG, Cell Titer-Glo, 72 h; read-out: IC50
Excerpt: (§1) Five serial 1:2 dilutions were made with anhydrous DMSO at 100× the final concentration used in the assay.

[2] = system: NmuMG mouse mammary normal epithelial cells; assay: Calcein AM cytotoxicity assay, NmuMG; type: cell-based; details: Epithelial cell, NmuMG, Calcein AM, 72 h, read-out: IC50
Excerpt: as §1

SK-OV-3 cells [3] = assay: Calcein AM cytotoxicity assay, SK-OV-3; type: cell-based; details: Homo sapiens; SK-OV-3, Calcein AM, 72 h; read-out: IC50
Excerpt: as §1

NCI/ADR RES cells [4] = assay: Calcein AM cytotoxicity assay, NCI/ADR-RES; type: cell-based; details: Homo sapiens, Calcein AM, 72 h, read-out: IC50
Excerpt: as §1

SF-268 cells [5] = assay: Calcein AM cytotoxicity assay, SF-268; type: cell-based; details: Homo sapiens; SF-268, Calcein AM, 72 h; read-out: IC50
Excerpt: as §1

MCF7 cells [6] = assay: Calcein AM cytotoxicity assay, MCF7; type: cell-based; details: Homo sapiens; MCF7, Calcein AM, 72 h; read-out: IC50
Excerpt: as §1

SK-OV-3 cells [7] = assay: Cell Titer-Glo cytotoxicity assay, SK-OV-3; type: cell-based; details: Homo sapiens; SK-OV-3, Cell Titer-Glo, 72 h; read-out: IC50
Excerpt: as §1

Hep3B cells [8] = assay: Calcein AM cytotoxicity assay, Hep3B; type: cell-based; details: Homo sapiens, Calcein AM, 72 h, read-out: IC50
Excerpt: as §1

HCT-116 cells [9] = assay: Calcein AM cytotoxicity assay, HCT-116; type: cell-based; details: Homo sapiens; HCT-116, Calcein AM, 72 h; read-out: IC50
Excerpt: as §1

SF-268 cells [10] = assay: Cell Titer-Glo cytotoxicity assay, SF-268; type: cell-based; details: Homo sapiens; SF-268, Cell Titer-Glo, 72 h; read-out: IC50
Excerpt: as §1

human cancer cell lines = assay: Cytotoxicity across the panel of human cancer cell lines (average, high-throughput assays); type: cell-based; details: for IC50: read-out: Cancerous Average IC50 / Average IC50 in Cancer Cell Lines
Excerpt: as §1

Du145 cells [11] = assay: Cell Titer-Glo cytotoxicity assay, Du145; type: cell-based; details: Homo sapiens, DU-145; Du145, Cell Titer-Glo, 72 h; read-out: IC50
Excerpt: as §1

Du145 cells [12] = assay: Calcein AM cytotoxicity assay, Du145; type: cell-based; details: Homo sapiens, DU-145; Du145, Calcein AM, 72 h; read-out: IC50
Excerpt: as §1

NCI-H460 cells [13] = assay: Calcein AM cytotoxicity assay, NCI-H460; type: cell-based; details: Homo sapiens; NCI-H460, Calcein AM, 72 h; read-out: IC50
Excerpt: as §1

MCF7 cells [14] = assay: Cell Titer-Glo cytotoxicity assay, MCF7; type: cell-based, human; details: for IC50: Homo sapiens, MCF7, Cell Titer-Glo, 72 h, read-out: IC50
Excerpt: as §1

HT-29 cells = assay: MTT cytotoxicity assay, HT-29; type: cell-based; details: Homo sapiens; HT-29, MTT, 24 h; read-out: IC50
NCI/ADR RES cells [15] = assay: Cell Titer-Glo cytotoxicity assay, NCI/ADR-RES; type: cell-based, human; details: for IC50: Homo sapiens, NCI/ADR-RES, Cell Titer-Glo, 72 h, read-out: IC50
Excerpt: as §1

Hep3B cells [16] = assay: Cell Titer-Glo cytotoxicity assay, Hep3B; type: cell-based; details: Homo sapiens, Cell Titer-Glo, 72 h, read-out: IC50
Excerpt: as §1

NCI-H460 cells [17] = assay: Cell Titer-Glo cytotoxicity assay, NCI-H460; type: cell-based, human; details: for IC50: Homo sapiens, NCI-H460, Cell Titer-Glo, 72 h, read-out: IC50
Excerpt: as §1

HCT-116 cells [18] = assay: Cell Titer-Glo cytotoxicity assay, HCT-116; type: cell-based; details: Homo sapiens; HCT-116, Cell Titer-Glo, 72 h; read-out: IC50
Excerpt: as §1

[19] = average across eight human cancer cell lines, MTT (HT-29) values excluded

| SMILES | IC50 [1] | IC50 [2] | IC50 (SK-OV-3 cells [3]) | IC50 (NCI/ADR RES cells [4]) | IC50 (SF-268 cells [5]) | IC50 (MCF7 cells [6]) | IC50 (SK-OV-3 cells [7]) | IC50 (Hep3B cells [8]) | IC50 (HCT-116 cells [9]) | IC50 (SF-268 cells [10]) | IC50 (human cancer cell lines; [19]) | IC50 (Du145 cells [11]) | IC50 (Du145 cells [12]) | IC50 (NCI-H460 cells [13]) | IC50 (MCF7 cells [14]) | IC50 (HT-29 cells) | IC50 (NCI/ADR RES cells [15]) | IC50 (Hep3B cells [16]) | IC50 (NCI-H460 cells [17]) | IC50 (HCT-116 cells [18]) | also measured |
| --- | --- | --- | --- | --- | --- | --- | --- | --- | --- | --- | --- | --- | --- | --- | --- | --- | --- | --- | --- | --- | --- |
| S=C=NCc1ccc(Br)cc1 [Compound 26, 1-bromo-4-(isothiocyanatomethyl)benzene] | 9.77 µM | 18.3 µM | 3.94 µM | > 20 µM | 10.9 µM | 7.08 µM | 7.17 µM | 7.16 µM | 5.16 µM | 6.96 µM | 10.7 µM | 10.1 µM | 7.67 µM | 16 µM | 5.92 µM | 47.4 µM | 22.3 µM | 6.8 µM | > 20 µM | 9.8 µM | – |
| CC(C)(C)CN=C=S [Compound 16, 1-isothiocyanato-2,2-dimethylpropane] | 26.8 µM | 49.4 µM | > 50 µM | > 50 µM | > 50 µM | > 50 µM | > 50 µM | > 50 µM | > 50 µM | > 50 µM | > 50 µM | > 50 µM | > 50 µM | > 50 µM | > 50 µM | > 50 µM | > 50 µM | > 50 µM | 30.3 µM | 35 µM | – |
| S=C=NCc1ccc2c(c1)OCO2 [Compound 29, 5-(isothiocyanatomethyl)benzo[d][1,3]dioxole] | 17 µM | < 12.5 µM | 2.79 µM | 6.39 µM | 2.55 µM | 3.15 µM | 4.44 µM | 3.9 µM | > 20 µM | 3.92 µM | 5.77 µM | 6.24 µM | 2.18 µM | 9.59 µM | 2.51 µM | 30.3 µM | 9.77 µM | 4.3 µM | 11.5 µM | 4.77 µM | – |
| S=C=N[C@@H]1CCCc2ccccc21 [Compound 32, (R)-1-isothiocyanato-1,2,3,4-tetrahydronaphthalene] | 17 µM | 17.2 µM | 5.18 µM | – | 5.75 µM | 3.88 µM | 7.74 µM | < 3.13 µM | 12.5 µM | 7.73 µM | 8.27 µM | 8.66 µM | 5.27 µM | 18.7 µM | 7.83 µM | 20.4 µM | – | 3.59 ± 0.16 µM | 13.3 µM | 9.05 µM | Cancerous Average IC50 / Average IC50 in Cancer Cell Lines (human cancer cell lines; [19]): 8.27^g μM; fold more potent than 23 (human cancer cell lines; in general, across cell lines): ~1.2 fold; fold more potent than the S-enantiomer 31 (human cancer cell lines; in general, across cell lines): approximately 2.0 fold |
| C[S@+]([O-])CCCCN=C=S [D-sulforaphane] | – | – | – | – | – | – | – | – | – | – | – | – | – | – | – | – | – | – | – | – | % bioactive (relative to L-sulforaphane) (MCF7 cells [14]; MCF7, inferred from racemate 13 versus 2): 0%; % bioactive (relative to L-sulforaphane) (NCI/ADR RES cells [15]; NCI/ADR RES, inferred from racemate 13 versus 2): 9%; % bioactive (relative to L-sulforaphane) (NCI-H460 cells [17]; NCI-H460, inferred from racemate 13 versus 2): 14% |
| COc1cccc(CN=C=S)c1OC [Compound 27] | 3.78 µM | 5.59 µM | 2.55 µM | 5.61 µM | 4.26 µM | 5.81 µM | 5.47 µM | 1.37 µM | < 1.88 µM | 3.21 µM | – | 8.24 µM | 2.46 µM | 15.8 µM | 3.22 µM | – | 20.8 µM | 4.87 µM | 16.1 µM | 6.72 µM | – |
